Series [1] has as its system human mesothelial Met-5A cells. As to the kind of experiment: rTGF-β1-induced EMT in Met-5A cells (western blot, RT-PCR). It counts as cell-based. The following applies: siRNA 50 nM, rTGF-β1 10 ng/ml. How it is done:
(§1) Mesothelial rat established cell line 4/4 RM4 cells (American Type Culture Collection—ATCC—Rockville, Md.) were seeded in Ham's F10 (Lonza), with FBS 15%. Mesothelial human established cell line MET-5A (ATCC) were seeded in Medium 199 (lonza), 1% L-glutamine, 1% penicillin-streptomycin with 10% FBS. Epithelial human cell line A549 cells (ATCC) and were seeded in Ham's F10 (lonza) with 10% FBS.
(§2) For EMT induction and analysis, all the different cells were exposed to their respective medium containing 10 ng/ml recombinant (r)TGF-β1 (R&D system, Lille, France) for 6, 12, 24, or 48 hours.
(§3) HSP27 siRNA were purchased from applied bios system (Courtaboeuf, France). The sense and antisense sequence were respectively: 5′-GUUCAAAGCAACCACCUGUtt-3 (SEQ ID No: 4)′ and 5′-ACAGGUGGUUGCUUUGAACtt-3′. (SEQ ID No: 5). They were used at a concentration of 50 nM. SiRNA were transfected using INTERFERin (polyplus, Illkirch, France) following the manufacturer recommendations. 5-6 hours after transfection medium were changed and cells were treated or not with 10 ng/ml TGF-β1 for 12, 24 or 48 hours. Seq ID No. 3 was used as a random control oligonucleotide.
Protein extraction was made using triton X 100 during 30 min at 4° C., vortexing every 10 min. Protein dosage is made with the modified lowry kit (Biorad, Marne-la-Coquette, France). Equal amounts of protein (30-50 μg) were electrophoresed through 8 to 12% SDS polyacrylamide gels. The separate protein bands were transferred onto a PVDF membrane. The non-specific sites were saturated with a solution of PBS-tween 0.1%, nonfat milk 8%. Membranes were incubated with primary Abs over night at 4° C. Secondary Abs IgG linked to HRP (HorseRadish Peroxidase, Jackson ImmunoResearch Laboratories, PA, USA) were used at a concentration of 1/5000. Enhanced ChemiLuminescent substrat (ECL, santa cruz biotechnology, CA, USA) was used to detect the protein of interest. […]
(§4) Total RNA was extracted using TRIzol (Invitrogen, Cergy Pontoise, France) from MET-5A and A549 cells treated or not with rTGF-β1 12 or 24 hours and transfected or not by HSP27 siRNA or plasmid encoding HSP27. […] Quantitative RT-PCR was performed on the cDNA using the SYBR green master mix (promega, Charbonnieres, France). […]
Background: A western blot detects proteins with antibodies after separation by electrophoresis.

For the next series, the system named is epithelial A549 cells. As to the kind of experiment: rTGF-β1-induced EMT in A549 cells. The class given is cell-based, human. The following applies: siRNA 50 nM, rTGF-β1 10 ng/ml. How it is done:
as §1, §2
HSP27 siRNA were purchased from applied bios system (Courtaboeuf, France). The sense and antisense sequence were respectively: 5′-GUUCAAAGCAACCACCUGUtt-3 (SEQ ID No: 4)′ and 5′-ACAGGUGGUUGCUUUGAACtt-3′. (SEQ ID No: 5). They were used at a concentration of 50 nM. SiRNA were transfected using INTERFERin (polyplus, Illkirch, France) following the manufacturer recommendations. 5-6 hours after transfection medium were changed and cells were treated or not with 10 ng/ml TGF-β1 for 12, 24 or 48 hours. […]
as §4

The next series has as its system mesothelial Met-5A cells. Kind of series: Scratch test (migration) on Met-5A cells after rTGF-β1. Particulars: cells treated with rTGF-β1. It counts as cell-based, human. The protocol:
as §3
Therefore, HSP27 inhibition blocked this all well known features of EMT induced by TGF-β1 in cultured cells. This corresponded to HSP27 expression levels (FIG. 3G).

Take “HSP27 siRNA: siRNA, sense 5′-GUUCAAAGCAACCACCUGUtt-3′ (SEQ ID No: 4), antisense 5′-ACAGGUGGUUGCUUUGAACtt-3′ (SEQ ID No: 5) (sense GUUCAAAGCAACCACCUGUTT; antisense ACAGGUGGUUGCUUUGAACTT; chemistry not given here; listed as Homo sapiens)”: the “rTGF-β1 induced α-SMA” value in series [1] (Met-5A cells) is “inhibits”. In addition, in series [1] (48 h), the “rTGF-β1-induced E-cadherin down-regulation” value is reported as “blocks” and the “rTGF-β1-induced α-SMA upregulation” value is “blocks”. Also, in the series with epithelial A549 cells, the “rTGF-β1 induced α-SMA” value is recorded as “inhibits”. Further, the “migration capacity in scratch test” value in the series with mesothelial Met-5A cells is “much weaker migration”. Further, the “wound recovery by 48 h” value with mesothelial Met-5A cells (48 h) was “still largely unrecovered”.

The values are drawn from patent US9326993B2, “Treatment of pulmonary and pleural fibrosis using HSP27 inhibitors” (ONCOGENEX TECHNOLOGIES INC., priority 2011, dated 2016).
